According to paper PMC10432564, “Pharmacological perturbation of the phase-separating protein SMNDC1” (Nature Communications, 2023):

Key:
SMNDC1-GFP αTC1 clones = test: Live imaging of endogenously tagged SMNDC1-GFP; format: cell-based, mouse
Description: Cell lines with fluorescent tags in the endogenous intron loci of different genes were generated as described in Serebrenik et al., and Reicher et al.[39],[74]. Cells were transiently transfected using Avalanche-Everyday Transfection Reagent with three plasmids in parallel: (1) the donor plasmid containing the artificial intron with splice acceptor and splice donor site, the fluorescent tag GFP or RFP, and a possible correction for the frame of the targeted intron, (2) a pX330 backbone containing Cas9 and the gRNA against the donor plasmid, and (3) a plasmid expressing the gRNA against the target intron (see table below). After 3–5 days, GFP- and/or RFP-positive cells were sorted on a SONY SH800 Cell Sorter to get fluorescent single cell clones. Clones were validated for the correct integration of the intron-tag via comparison of live cell images to publicly available or in-house IF images, genomic DNA PCR amplification of the respective loci, and western blots with antibodies against the target protein and/or the fluorescent tag.
Cells were imaged on a PerkinElmer Opera Phenix automated microscope with 500 ms exposure time in either GFP or RFP channel, or on a Zeiss LSM 980 microscope. For condition-independent identification nuclear markers such as Hoechst or DRAQ5^TM were used.
Images were analyzed using the high-content image acquisition and analysis software Harmony® 4.9 developed by PerkinElmer. First, nuclei were identified in the channel of the nuclear marker (DAPI/ Hoechst/ DRAQ5^TM) (with Method C, Common Threshold 0.75, Area > 10 µm^2). After the identification of nuclei, their corresponding cytoplasm was also identified using the respective nucleic acid marker (with Method A, Individual Threshold 0.15). Even though the highest staining of these nuclear markers is obviously detected in the nucleus they still produce a significant staining of the cytoplasm above background. After defining the respective cell areas, mean intensity in the different channels was measured. Finally, spots were identified with the according “Spots” algorithm (with Method A, Relative Spot Intensity > 0.053, Splitting Sensitivity: 1.0).

SMN Tudor domain = SMN Tudor domain (Homo sapiens, UniProt Q16637); test: AlphaScreen, SMN Tudor domain / sDMA-peptide interaction
SMN Tudor domain, sequence (Q16637 84-147): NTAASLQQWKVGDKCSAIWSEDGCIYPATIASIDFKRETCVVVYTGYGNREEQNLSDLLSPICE
Description: To establish an AlphaScreen[50], we coupled donor beads to purified SMNDC1’s (or SMN’s) Tudor domain via a His-Tag and acceptor beads to a biotinylated peptide corresponding to the C-terminal region of the Small nuclear ribonucleoprotein Sm D3 containing four sDMAs (Fig. 4a). […] To identify ideal concentrations for screening, we performed a cross-titration of Tudor domains and binding peptides (Supplementary Fig. 3b).
(§1) The AlphaScreen was conducted in 20 mM sodium phosphate pH 6.5, 50 mM NaCl, Tween 0.01%, BSA 0.1%. Protein concentration was optimized for each batch of purified protein. Optimal concentration was chosen at the lowest concentration with ~80% of maximum signal. […] In the first step, 10 µl of the protein solution containing either SMNDC1’s or SMN’s Tudor domain coupled to a 6xHis-Tag were distributed to 384-well plates pre-spotted with compounds and controls, shaken and incubated for 30 min at RT. Afterwards, 10 µl of peptide solution was added to each well and incubated for 1 h at RT. Finally, 5 µl of a solution containing both Streptavidin Donor and nickel chelate (Ni-NTA) Acceptor beads was added and again incubated for 1 h at RT.

SMNDC1 Tudor domain = target: T1, SMNDC1 Tudor domain (Homo sapiens, UniProt O75940); test: AlphaScreen, SMNDC1 Tudor domain / sDMA-peptide interaction; details: for effect of the structural modification on potency / IC50: structure-activity relationships around compound 1; for selectivity between SMNDC1 and SMN: AlphaScreen SMNDC1 vs SMN
T1 sequence (O75940 65-128): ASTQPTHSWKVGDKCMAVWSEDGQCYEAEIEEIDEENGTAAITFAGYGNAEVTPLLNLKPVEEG
Description: To pharmacologically perturb SMNDC1 function, we set out to identify small molecule inhibitors of SMNDC1’s Tudor domain based on perturbing its interaction with a dimethylarginine peptide. To establish an AlphaScreen[50], we coupled donor beads to purified SMNDC1’s (or SMN’s) Tudor domain via a His-Tag and acceptor beads to a biotinylated peptide corresponding to the C-terminal region of the Small nuclear ribonucleoprotein Sm D3 containing four sDMAs (Fig. 4a). […] To identify ideal concentrations for screening, we performed a cross-titration of Tudor domains and binding peptides (Supplementary Fig. 3b).
as §1
Category Parameter Description
Assay Type of assay In vitro AlphaScreen / luminescence proximity
Target Tudor domain of SMNDC1
Primary measurement Decrease in luminescence signal reflecting
disruption of heterodimeric complex between
SMNDC1-Tudor domain and a peptide
corresponding to the C-terminus of Small nuclear
ribonucleoprotein Sm D3 containing 4 sDMAs
Key reagents AlphaScreen no-wash assay kit containing
Streptavidin Donor beads and nickel chelate (Ni-
NTA) AlphaScreen Acceptor beads (PerkinElmer
Assay protocol Described in Methods section
Screen Format PerkinElmer OptiPlate-384 well plate
Concentration(s) tested Typically 10 μM (0.1% DMSO)
Plate controls 32 positive control wells (Mitoxantrone, quencher),
32 negative control wells (DMSO)
Reagent/ compound dispensing system Echo 520 Liquid Handler Multidrop™ Combi
Normalization Raw signal was normalized plate-specifically by
correcting row and column-specific mean signals to
the mean signal of the entire plate, each after
removing the highest and lowest 25% of values. Raw
signal was then converted to percent of control
signal, but linear regression to plate-specific mean
signal of DMSO wells (set to 100 percent of control)
and positive control wells (set to 0% of control), after
outlier removal using a Grubbs test.
unspecific quenchers), Secondary screen (with

Compound | IC50 (SMN Tudor domain) [nM] | IC50 (SMNDC1 Tudor domain) [nM] | further results
OCCCCCCO [1,6-hexanediol, reference compound] |  |  | focal localization of SMNDC1-GFP within the nucleus (SMNDC1-GFP αTC1 clones; live cells, 2.5% or 5%): losing its focal localization within the nucleus
O=C(Nc1nc(-c2ccccn2)cs1)c1ccc(S(=O)(=O)N2CCOCC2)cc1 [Fig. 4e] | 640 | 770 | 
COc1ccc(Cc2nnc(NC(=O)Cc3cccs3)s2)cc1OC [Fig. 4g] | 5800 | 2300 | 
CC1NC(=O)NC1CCCCCC(=O)OCC(=O)c1ccccc1 (centres unmarked) [Fig. 4h] | 4000 | 190 | 
CCc1ccccc1NC(=O)c1cccc2c1C(=O)N(c1ccc(OC)cc1)C2 [Fig. 4i] | 3900 | 1400 | 
Cc1cc(C)n2c(Nc3ccccc3C)c(-c3ccccn3)nc2n1 [Fig. 4k] | 1200 | 1100 | 
CCN(CC)S(=O)(=O)c1ccc(C(=O)Nc2nc(-c3cccnc3)cs2)cc1 [compound 3] | > 50000 | > 50000 | 
CN(C)S(=O)(=O)c1ccc(C(=O)Nc2nc(-c3ccncc3)cs2)cc1 [compound 4] | 3030 | 9560 | 
COc1ccccc1-c1csc(NC(=O)c2ccc(S(=O)(=O)N(C)C)cc2)n1 [compound 5] | 1700 | 920 | 
Cc1ccc(-c2csc(NC(=O)c3ccc(S(=O)(=O)N4CCCC4)cc3)n2)o1 [compound 6] | 29400 | 33700 | 
O=C(Nc1nc(-c2cccs2)cs1)c1ccc(S(=O)(=O)N2CCCC2)cc1 [compound 7] | > 50000 | > 50000 | 
N#Cc1cccc(C(=O)Nc2nc(-c3ccc[nH]3)cs2)c1 [compound 8] | 8240 | 4050 | effect of the structural modification on potency / IC50 (SMNDC1 Tudor domain): some loss of potency
CCOC(=O)c1csc(NC(=O)c2ccc(S(=O)(=O)N(C)C)cc2)n1 [compound 9] | > 50000 | > 50000 | SMNDC1-GFP spots within the nucleus (SMNDC1-GFP αTC1 clones; 50 µM, 12–16 h): not observed; SMNDC1 within the nucleus (nuclear SMNDC1-GFP) (SMNDC1-GFP αTC1 clones; 50 µM, 12–16 h): not observed; effect of the structural modification on potency / IC50 (SMNDC1 Tudor domain): complete loss of activity
Cc1sc(NC(=O)c2ccc(S(=O)(=O)N(C)C)cc2)nc1-c1ccccn1 [compound 10] | 1260 | 450 | effect of the structural modification on potency / IC50 (SMNDC1 Tudor domain): without loss of potency
CCc1sc(NC(=O)c2ccc(S(=O)(=O)N(C)C)cc2)nc1-c1ccccn1 [compound 11] | 3520 | 1400 | 
CN(C)S(=O)(=O)c1ccc(C(=O)Nc2nc(-c3ccccn3)c(Br)s2)cc1 [compound 12] | 3840 | 1370 | 
Nc1csc(-c2ccccn2)n1 [compound 14] | 5350 | 1780 | 
Nc1ncc(-c2ccccn2)s1 [compound 15] | 15200 | > 50000 | selectivity between SMNDC1 and SMN (SMNDC1 Tudor domain): preferentially inhibited SMN over SMNDC1; effect of the structural modification on potency / IC50 (SMNDC1 Tudor domain): significant loss of activity
Nc1nc(-c2ccccn2)co1 [compound 16] | > 50000 | 20700 | drop in potency (SMNDC1 Tudor domain; thiazole replaced with analogous oxazole): 40 fold
COc1ccc(CCNc2nc(-c3ccccn3)cs2)cc1OC [compound 17] | 2000 | 1420 | 

The next lines start with results.

IC50 (SMN Tudor domain) [nM] | IC50 (SMNDC1 Tudor domain) [nM] | Compound | further results
2550 | 1000 | O=S(=O)(Nc1nc(-c2ccccn2)cs1)c1ccccc1 [compound 18] | 
13200 | 14500 | N=C(N)Nc1nc(-c2ccccn2)cs1 [compound 19] | 
2930 | 2120 | O=C(Nc1nc(-c2ccccn2)cs1)C1CC1 [compound 20] | 
1160 | 1090 | CCn1ccc(C(=O)Nc2nc(-c3ccccn3)cs2)n1 [compound 21] | 
900 | 470 | Cc1ccc(C(=O)Nc2nc(-c3ccccn3)cs2)o1 [compound 22] | 
1350 | 810 | Cc1ccnc2nc(C(=O)Nc3nc(-c4ccccn4)cs3)nn12 [compound 24] | 
9820 | 1470 | CC(C)(C)CNC(=O)c1ccc(C(=O)Nc2nc(-c3ccccn3)cs2)cc1 [compound 25] | selectivity between SMNDC1 and SMN (SMNDC1 Tudor domain): increased selectivity for SMNDC1 over SMN
3380 | 1100 | O=C(O)c1ccc(C(=O)Nc2nc(-c3ccccn3)cs2)cc1 [compound 26] | 
1230 | 730 | O=C(Nc1nc(-c2ccccn2)cs1)c1ccc(-n2cnnn2)cc1 [compound 27] | 
15400 |  | CC(C)(C)OC(=O)NCCNC(=O)c1ccc(C(=O)Nc2nc(-c3ccccn3)cs2)cc1 [compound 28] | effects on SMNDC1 and SRRM2 localization (SMNDC1-GFP αTC1 clones; double-tagged SMNDC1-GFP SRRM2-RFP αTC1-clone, 50/25/12.5/6.25/3.125 µM): could confirm the effects observed for the non-selective compound 1
